By IC50 is commonly meant the concentration at which inhibition is half-maximal.

Where two headings read alike, the source gives them in different places.

One assay has as its system HT-1080 cells. Description: Cellular dose response assay, HT-1080 with and without Fer-1. As to conditions: for Selectivity: ferroptosis selectivity; for ferroptosis induction / potency in HT-1080 cells, result in words: RSL3 as control. The class given is cell-based, human. From the text: HT-1080 (human [Homo sapiens] […] fibrosarcoma), A-673 (human [Homo sapiens] […] Ewing's sarcoma), and SK-HEP-1 (human [Homo sapiens] […] hepatic adenocarcinoma), cells were obtained from ATCC. Huh7 (human [Homo sapiens] […] hepatocellular carcinoma), HLF (human [Homo sapiens] […] hepatocellular carcinoma), HepG2 (human [Homo sapiens] […] hepatocellular carcinoma), cells were obtained from the Cancer Cell Bank at Columbia University Irving Medical Center. HT-1080, A-673, Huh-7, and HLF cells were grown in Dulbecco's Modified Eagle Medium (DMEM) supplemented with 10% heat inactivated fetal bovine serum (HI-FBS), 1% non-essential amino acids, and 1% penicillin streptomycin. HepG2 and SK-HEP-1 cells were grown in Eagle's Minimum Essential Medium (EMEM) supplemented with 10% HI-FBS, and 1% penicillin-streptomycin. All cells were cultured at 37° C. and 5% CO2.
HT-1080, HepG2, Huh7, HLF, and SK-HEP-1 cells were seeded into opaque white 384-well plates at 1500 cells per well then incubated at 37° C. with 5% CO2 overnight. The next day, compounds of interest were dissolved in DMSO and 12-point 2-fold dilution series were prepared with and without Fer-1. Cells were treated in triplicate (final DMSO concentration of 0.4% in all wells, including DMSO-only control wells) and incubated for a further 48 hours at 37° C. and 5% CO2. Cell viability was evaluated using CellTiter-Glo (Promega G7573) and luminescence was recorded on a Victor 5 plate reader. Data were analyzed in GraphPad Prism 9 and error bars represent standard deviation values for three technical replicates in a representative experiment.

A further assay has as its target T1, GPX4 (Homo sapiens, UniProt P36969).
T1 sequence (P36969 1-170 isoform P36969-2): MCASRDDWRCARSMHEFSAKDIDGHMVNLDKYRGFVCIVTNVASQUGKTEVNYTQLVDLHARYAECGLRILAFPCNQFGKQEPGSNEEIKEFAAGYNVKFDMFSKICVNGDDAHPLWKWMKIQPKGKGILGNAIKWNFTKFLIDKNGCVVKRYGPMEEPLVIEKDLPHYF
The assay can be described thus: GPX4 activity assay in cell lysates (NADPH-coupled). The assay is classed as biochemical. Details: endogenous in cells; host or cells: A-673 cell lysate. The method, boiled down: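 Native GPX4 in lysates of A-673 cells grown with 20 nM sodium selenite; lysate preincubated with compound 45 min at 37 °C in pH 8.0 buffer with 3 mM GSH, 0.5 mM NADPH and glutathione reductase. Reaction started with phosphatidylcholine hydroperoxide; NADPH consumption followed at 340 nm over 25 min; triplicates.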

[1] abbreviates: HT1080 + Fer-1, read-out: IC50 (uM) HT1080 + Fer-1.
Where [2] appears, read: HT1080, without Fer-1, read-out: IC50 (uM) HT1080.
Where [3] appears, read: with Fer-1, Table 10, read-out: IC50 (μM) HT1080 + Fer-1.
Where [4] appears, read: without Fer-1, Table 10, read-out: IC50 (μM) HT1080.

Turning to `COc1ccc(-c2ccc3c(C(=O)NC(C)(C)C(C)OC(=O)CCl)nn(C)c3c2)cc1Cl` (racemic) [QW-736], the values for the IC50 in the assay with HT-1080 cells (setting [1]) and in the assay on HT-1080 cells (setting [2]) were 7.3 µM and 3.7 µM, respectively. In addition, the Selectivity in the assay with HT-1080 cells (HT1080 + Fer-1 vs HT1080) is given as 2.0. Moreover, the “GPX4% inhibition at 2.5 μM” value on GPX4 (2.5 μM) amounted to 95.3 ± 7.6%.
Regarding `Cn1nc(C(=O)NC(C)(C)COC(=O)CCl)c2ccc(-c3cc4ccccc4s3)cc21` [QW-470], the IC50 with HT-1080 cells (setting [1]) was found to be 17.3 µM; with HT-1080 cells (setting [2]) it was 1.7 µM. In the assay with HT-1080 cells (HT1080 + Fer-1 vs HT1080), the Selectivity was 10.2. In addition, the “GPX4% inhibition at 5 μM” value on GPX4 (5 μM) is recorded as 75.0 ± 5.6%.
Turning to `CCOCCOc1ccc(-c2ccc3c(C(=O)NC(C)(C)COC(=O)CCl)nn(C)c3c2)cc1` [QW-605], the IC50 in the assay with HT-1080 cells (setting [1]) was 17.5 µM; in the assay with HT-1080 cells (setting [2]), 1.9 µM. Besides, the Selectivity in the assay with HT-1080 cells (HT1080 + Fer-1 vs HT1080) is 9.2. The “GPX4% inhibition at 2.5 μM” value at GPX4 (2.5 μM) is 60.9 ± 15.7%.
For `Cn1nc(-n2cc(C(C)(C)COC(=O)CCl)nn2)c2ccc(-c3ccc(OC(F)(F)F)c(Cl)c3)cc21` [QW-677], in that order: 14 µM, 1.65 µM, 8.5 and 33.6 ± 6.3%.
For `Cn1nc(-c2nnc(C(C)(OC(=O)CCl)C(F)(F)F)o2)c2ccc(-c3ccc4c(c3)OCO4)cc21` (stereo not shown) [QW-695], in that order: 14.4 µM, 9.4 µM, 1.5 and −49.5 ± 28.5%.
For `Cn1nc(-n2cc(C(C)(C)COC(=O)CCl)nn2)c2ccc(-c3ccc4c(c3)OCO4)cc21` [QW-696], in that order: 8.8 µM, 2.9 µM, 3.0 and 22.3 ± 37.1%.
Take `COc1c(Cl)cc(-c2ccc3c(C(=O)NC(C)(C)COC(=O)CCl)nn(C)c3c2)cc1Cl` [QW-711]: the values for the IC50 in the assay on HT-1080 cells (setting [1]) and in the assay on HT-1080 cells (setting [2]) were 31.7 µM and 1.4 µM, respectively. Moreover, in the assay on HT-1080 cells, the “ferroptosis induction / potency in HT-1080 cells, result in words” value (“ferroptosis induction / potency” for short) was “less potent compared to RSL3”. Further, the Selectivity in the assay with HT-1080 cells (HT1080 + Fer-1 vs HT1080) stood at 22.6. In addition, on GPX4, the “GPX4 inhibitory activity, result in words” value is given as “further increase the inhibitory activity”. Moreover, the “GPX4% inhibition at 2.5 μM” value at GPX4 (2.5 μM) came out at 98.4 ± 17.6%.
As to `COc1c(Cl)cc(-c2ccc3c(-n4cc(C(C)(C)COC(=O)CCl)nn4)nn(C)c3c2)cc1Cl` [QW-712], the IC50 in the assay with HT-1080 cells (setting [1]) turned out to be 28.4 µM; in the assay with HT-1080 cells (setting [2]), 1.9 µM. For the same molecule, in the assay with HT-1080 cells, the “ferroptosis induction / potency” value is listed as “less potent compared to RSL3”. Also, the Selectivity with HT-1080 cells (HT1080 + Fer-1 vs HT1080) is recorded as 14.9. Also, on GPX4 (2.5 μM), the “GPX4% inhibition at 2.5 μM” value is 68.5 ± 9.4%.
Consider `Cn1nc(C(=O)NC(C)(C)COC(=O)CCl)c2ccc(-c3ccc(OC(C)(C)C)cc3)cc21` [QW-715], for which, in the assay on HT-1080 cells (setting [1]), the IC50 was 24.1 µM. Besides, the IC50 in the assay with HT-1080 cells (setting [2]) was 2.6 µM. Also, the “ferroptosis induction / potency” value in the assay on HT-1080 cells was “more potent compared to RSL3”. Moreover, in the assay on HT-1080 cells (HT1080 + Fer-1 vs HT1080), the Selectivity is reported as 9.3. In addition, at GPX4 (2.5 μM), the “GPX4% inhibition at 2.5 μM” value stood at 95.3 ± 7.6% and the GPX4 inhibition result is reported as “completely inhibited GPX4”.
Regarding `CC(C)Oc1ncc(-c2ccc3c(C(=O)NC(C)(C)COC(=O)CCl)nn(C)c3c2)cn1` [QW-716], the IC50 in the assay with HT-1080 cells (setting [1]) came to 63 µM; in the assay on HT-1080 cells (setting [2]) it was 1.6 µM. Besides, the “ferroptosis induction / potency” value in the assay on HT-1080 cells is reported as “more potent compared to RSL3”. The Selectivity in the assay on HT-1080 cells (HT1080 + Fer-1 vs HT1080) is listed as 39.4. Moreover, the “GPX4 inhibitory activity, result in words” value at GPX4 is reported as “substantially higher GPX4 inhibitory activities than QW-446”. Also, the “GPX4% inhibition at 2.5 μM” value at GPX4 (2.5 μM) amounted to 86.4 ± 7.3%.
In the case of `CC(C)(COC(=O)CBr)NC(=O)c1nn(Cc2cc(Cl)cc(Cl)c2)c2cc(-c3ccc(N4CCOCC4)c(Cl)c3)ccc12` [QW-1004], the Selectivity in the assay on HT-1080 cells (IC50 with Fer-1 / IC50) came out at 2.3. In addition, the IC50 was found to be 8.9 µM with HT-1080 cells (setting [3]) and 3.8 µM with HT-1080 cells (setting [4]).
Consider `CC(C)(COC(=O)c1ccc(S(C)(=O)=O)c([N+](=O)[O-])c1)NC(=O)c1nn(Cc2cc(Cl)cc(Cl)c2)c2cc(-c3ccc(N4CCOCC4)c(Cl)c3)ccc12` [QW-1006], for which the IC50 with HT-1080 cells (setting [3]) and with HT-1080 cells (setting [4]) was above 40 µM each time.

The record behind these values is patent US20250248979A1, “NOVEL GPX4 INHIBITORS AND USES THEREOF” (THE TRUSTEES OF COLUMBIA UNIVERSITY IN THE CITY OF NEW YORK, priority 2022, published 2025).
